Measurements from ChEMBL document CHEMBL1777722, “Design and synthesis of 5,6-fused heterocyclic amides as Raf kinase inhibitors” (Bioorg Med Chem Lett, 2011).
Calls of active or inactive are those of the source. The rule behind the calls is not given here.

Key:
[1] = target: RAF proto-oncogene serine/threonine-protein kinase (Homo sapiens, UniProt P04049); experiment: Inhibition of c-Raf assessed as phosphorylation of MEK1/2 by ELISA
[2] = target: T1, Serine/threonine-protein kinase B-raf (Homo sapiens, UniProt P15056, V600E); experiment: Inhibition of B-Raf V599E mutant assessed as phosphorylation of MEK1/2 by ELISA
T1 sequence (P15056 2-766 V600E limits assumed): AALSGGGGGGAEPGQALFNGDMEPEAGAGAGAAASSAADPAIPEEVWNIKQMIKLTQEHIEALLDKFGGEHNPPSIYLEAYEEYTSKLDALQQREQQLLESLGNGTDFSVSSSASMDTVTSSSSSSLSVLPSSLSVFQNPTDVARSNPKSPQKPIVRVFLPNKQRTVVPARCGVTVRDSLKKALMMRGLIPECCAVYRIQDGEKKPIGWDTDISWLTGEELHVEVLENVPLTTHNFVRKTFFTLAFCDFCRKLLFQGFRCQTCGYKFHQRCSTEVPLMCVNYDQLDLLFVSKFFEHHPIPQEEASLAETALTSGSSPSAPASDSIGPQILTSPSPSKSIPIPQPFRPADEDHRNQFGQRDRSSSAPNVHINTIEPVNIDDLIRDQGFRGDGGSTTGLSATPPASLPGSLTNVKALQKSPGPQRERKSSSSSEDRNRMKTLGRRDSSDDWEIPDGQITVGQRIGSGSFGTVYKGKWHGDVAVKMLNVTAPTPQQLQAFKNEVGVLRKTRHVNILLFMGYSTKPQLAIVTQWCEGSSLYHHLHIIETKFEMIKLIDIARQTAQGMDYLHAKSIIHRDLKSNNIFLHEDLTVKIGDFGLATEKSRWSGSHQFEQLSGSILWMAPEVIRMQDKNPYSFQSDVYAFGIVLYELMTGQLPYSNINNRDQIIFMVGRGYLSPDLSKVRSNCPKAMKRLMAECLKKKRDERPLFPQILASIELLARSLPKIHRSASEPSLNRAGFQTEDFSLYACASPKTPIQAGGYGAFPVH

[3] = target: T1, Serine/threonine-protein kinase B-raf; experiment: Inhibition of BRAF V600E mutant-mediated ERK phosphorylation in human SKMEL-28 cells by immunoblotting method; format: cell-based, MEL-28
[4] = target: Macrophage colony-stimulating factor 1 receptor (Homo sapiens) (UniProt P07333); experiment: Inhibition of CSFR1
[5] = target: Receptor-type tyrosine-protein kinase FLT3 (Homo sapiens) (UniProt P36888); experiment: Inhibition of Flt3
[6] = target: Vascular endothelial growth factor receptor 2 (Homo sapiens) (UniProt P35968); experiment: Inhibition of KDR
Chain of Vascular endothelial growth factor receptor 2 (Homo sapiens) (P35968 whole entry): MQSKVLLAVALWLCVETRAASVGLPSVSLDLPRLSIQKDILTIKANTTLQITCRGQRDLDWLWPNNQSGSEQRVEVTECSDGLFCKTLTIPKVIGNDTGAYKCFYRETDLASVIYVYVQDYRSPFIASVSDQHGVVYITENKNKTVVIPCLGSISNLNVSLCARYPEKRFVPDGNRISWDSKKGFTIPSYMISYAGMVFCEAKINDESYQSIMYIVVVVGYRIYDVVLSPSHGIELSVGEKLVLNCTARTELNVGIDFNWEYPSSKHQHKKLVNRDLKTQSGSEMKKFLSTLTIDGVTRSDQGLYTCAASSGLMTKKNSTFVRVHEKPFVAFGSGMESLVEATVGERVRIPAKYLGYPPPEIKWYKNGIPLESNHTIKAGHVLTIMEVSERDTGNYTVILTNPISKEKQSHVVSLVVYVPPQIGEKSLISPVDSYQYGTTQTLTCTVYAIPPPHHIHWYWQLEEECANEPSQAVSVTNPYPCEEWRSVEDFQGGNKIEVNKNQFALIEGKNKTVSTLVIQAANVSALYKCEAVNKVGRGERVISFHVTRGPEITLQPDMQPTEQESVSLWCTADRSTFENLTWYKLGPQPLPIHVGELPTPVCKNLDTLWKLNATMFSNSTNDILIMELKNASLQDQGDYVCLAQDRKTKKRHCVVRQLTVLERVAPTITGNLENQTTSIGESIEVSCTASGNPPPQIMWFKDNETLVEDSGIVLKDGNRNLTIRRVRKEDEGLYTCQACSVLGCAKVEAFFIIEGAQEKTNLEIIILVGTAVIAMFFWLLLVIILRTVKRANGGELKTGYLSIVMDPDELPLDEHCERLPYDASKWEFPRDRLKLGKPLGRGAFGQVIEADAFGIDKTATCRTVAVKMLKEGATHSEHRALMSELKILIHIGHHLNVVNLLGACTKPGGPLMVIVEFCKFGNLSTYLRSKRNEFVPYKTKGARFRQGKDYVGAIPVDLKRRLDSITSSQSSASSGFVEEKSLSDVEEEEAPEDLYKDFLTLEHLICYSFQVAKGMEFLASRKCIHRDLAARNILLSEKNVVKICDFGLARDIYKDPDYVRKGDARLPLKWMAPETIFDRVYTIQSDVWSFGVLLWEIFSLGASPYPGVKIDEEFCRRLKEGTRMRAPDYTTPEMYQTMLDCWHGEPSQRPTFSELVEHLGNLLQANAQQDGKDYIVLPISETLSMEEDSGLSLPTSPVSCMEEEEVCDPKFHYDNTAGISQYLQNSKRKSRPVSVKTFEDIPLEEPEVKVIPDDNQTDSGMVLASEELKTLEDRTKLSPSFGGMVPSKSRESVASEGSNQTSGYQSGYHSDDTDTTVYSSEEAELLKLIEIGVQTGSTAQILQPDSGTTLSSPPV

[7] = target: Tyrosine-protein kinase ABL1 (Homo sapiens) (UniProt P00519); experiment: Inhibition of cABL
Chain of Tyrosine-protein kinase ABL1 (Homo sapiens) (P00519 whole entry): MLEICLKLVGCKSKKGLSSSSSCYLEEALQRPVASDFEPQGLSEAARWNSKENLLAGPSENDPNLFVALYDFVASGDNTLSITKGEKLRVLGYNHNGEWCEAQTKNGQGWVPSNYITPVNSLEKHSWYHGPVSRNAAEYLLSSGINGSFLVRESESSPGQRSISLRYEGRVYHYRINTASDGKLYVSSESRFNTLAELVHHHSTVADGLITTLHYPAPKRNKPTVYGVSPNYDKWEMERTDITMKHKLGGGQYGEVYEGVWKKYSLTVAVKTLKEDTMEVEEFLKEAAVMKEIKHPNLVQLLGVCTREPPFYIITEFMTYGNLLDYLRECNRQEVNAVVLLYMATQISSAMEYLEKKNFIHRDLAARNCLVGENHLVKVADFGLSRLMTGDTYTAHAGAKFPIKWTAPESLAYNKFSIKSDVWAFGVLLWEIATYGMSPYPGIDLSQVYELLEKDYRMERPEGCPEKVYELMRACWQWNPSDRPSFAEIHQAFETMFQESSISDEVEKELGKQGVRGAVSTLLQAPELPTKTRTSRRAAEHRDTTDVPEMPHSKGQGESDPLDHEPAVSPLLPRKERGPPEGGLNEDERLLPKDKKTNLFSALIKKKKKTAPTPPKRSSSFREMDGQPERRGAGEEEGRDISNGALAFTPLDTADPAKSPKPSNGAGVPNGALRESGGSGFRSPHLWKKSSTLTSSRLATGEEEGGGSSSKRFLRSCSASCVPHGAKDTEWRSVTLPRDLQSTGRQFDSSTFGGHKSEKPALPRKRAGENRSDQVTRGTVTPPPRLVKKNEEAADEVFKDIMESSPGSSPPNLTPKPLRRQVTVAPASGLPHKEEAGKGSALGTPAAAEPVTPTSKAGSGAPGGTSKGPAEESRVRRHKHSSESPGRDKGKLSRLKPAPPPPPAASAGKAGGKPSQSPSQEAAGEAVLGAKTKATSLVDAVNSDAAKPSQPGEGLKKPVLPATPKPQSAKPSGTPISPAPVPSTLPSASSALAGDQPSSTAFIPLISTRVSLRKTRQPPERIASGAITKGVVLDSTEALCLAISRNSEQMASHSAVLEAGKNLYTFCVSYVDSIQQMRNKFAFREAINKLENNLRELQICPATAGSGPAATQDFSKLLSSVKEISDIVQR

[8] = target: Proto-oncogene tyrosine-protein kinase receptor Ret (Homo sapiens) (UniProt P07949); experiment: Inhibition of Ret
Chain of Proto-oncogene tyrosine-protein kinase receptor Ret (Homo sapiens) (P07949 whole entry): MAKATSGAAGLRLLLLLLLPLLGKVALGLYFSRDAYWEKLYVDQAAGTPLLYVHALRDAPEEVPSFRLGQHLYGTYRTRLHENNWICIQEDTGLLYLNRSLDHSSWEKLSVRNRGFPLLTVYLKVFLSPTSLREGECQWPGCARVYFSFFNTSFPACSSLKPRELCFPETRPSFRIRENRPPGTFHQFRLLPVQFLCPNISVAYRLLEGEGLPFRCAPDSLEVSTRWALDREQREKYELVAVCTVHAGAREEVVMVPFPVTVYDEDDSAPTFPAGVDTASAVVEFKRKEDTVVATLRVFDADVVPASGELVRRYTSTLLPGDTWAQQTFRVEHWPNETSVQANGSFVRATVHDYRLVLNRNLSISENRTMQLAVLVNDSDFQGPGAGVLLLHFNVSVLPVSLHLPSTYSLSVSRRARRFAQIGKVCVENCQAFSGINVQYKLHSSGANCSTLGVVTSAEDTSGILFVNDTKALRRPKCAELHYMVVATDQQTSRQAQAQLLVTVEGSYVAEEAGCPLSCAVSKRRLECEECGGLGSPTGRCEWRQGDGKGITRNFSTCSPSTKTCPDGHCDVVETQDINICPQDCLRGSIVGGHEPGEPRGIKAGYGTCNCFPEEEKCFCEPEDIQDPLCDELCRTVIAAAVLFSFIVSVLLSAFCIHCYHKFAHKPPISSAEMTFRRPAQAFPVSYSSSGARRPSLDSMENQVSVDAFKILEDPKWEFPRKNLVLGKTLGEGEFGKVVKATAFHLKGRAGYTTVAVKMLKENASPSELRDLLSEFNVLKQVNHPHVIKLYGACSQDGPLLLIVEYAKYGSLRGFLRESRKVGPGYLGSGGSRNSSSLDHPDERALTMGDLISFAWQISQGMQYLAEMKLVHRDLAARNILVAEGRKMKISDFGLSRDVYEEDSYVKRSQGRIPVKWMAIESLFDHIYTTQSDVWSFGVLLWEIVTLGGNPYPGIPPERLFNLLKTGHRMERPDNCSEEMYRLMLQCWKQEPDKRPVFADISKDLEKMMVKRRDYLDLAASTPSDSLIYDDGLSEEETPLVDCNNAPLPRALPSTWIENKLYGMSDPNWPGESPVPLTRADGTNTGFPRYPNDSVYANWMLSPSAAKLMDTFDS

[9] = Clearance in mouse at 20 mg/kg, po administered as single dose; format: ADME, organism-based; design: dose 20 mg/kg, route oral; settings: in vivo
Mus musculus = experiment: Volume of distribution in mouse at 20 mg/kg, po administered as single dose; format: ADME, organism-based; design: dose 20 mg/kg, route oral; settings: in vivo
[10] = Half life in mouse at 20 mg/kg, po administered as single dose; format: ADME, organism-based; design: dose 20 mg/kg, route oral; settings: in vivo
[11] = Oral bioavailability in mouse at 20 mg/kg administered as single dose; format: ADME, organism-based; settings: in vivo

Chain of RAF proto-oncogene serine/threonine-protein kinase (P04049 whole entry): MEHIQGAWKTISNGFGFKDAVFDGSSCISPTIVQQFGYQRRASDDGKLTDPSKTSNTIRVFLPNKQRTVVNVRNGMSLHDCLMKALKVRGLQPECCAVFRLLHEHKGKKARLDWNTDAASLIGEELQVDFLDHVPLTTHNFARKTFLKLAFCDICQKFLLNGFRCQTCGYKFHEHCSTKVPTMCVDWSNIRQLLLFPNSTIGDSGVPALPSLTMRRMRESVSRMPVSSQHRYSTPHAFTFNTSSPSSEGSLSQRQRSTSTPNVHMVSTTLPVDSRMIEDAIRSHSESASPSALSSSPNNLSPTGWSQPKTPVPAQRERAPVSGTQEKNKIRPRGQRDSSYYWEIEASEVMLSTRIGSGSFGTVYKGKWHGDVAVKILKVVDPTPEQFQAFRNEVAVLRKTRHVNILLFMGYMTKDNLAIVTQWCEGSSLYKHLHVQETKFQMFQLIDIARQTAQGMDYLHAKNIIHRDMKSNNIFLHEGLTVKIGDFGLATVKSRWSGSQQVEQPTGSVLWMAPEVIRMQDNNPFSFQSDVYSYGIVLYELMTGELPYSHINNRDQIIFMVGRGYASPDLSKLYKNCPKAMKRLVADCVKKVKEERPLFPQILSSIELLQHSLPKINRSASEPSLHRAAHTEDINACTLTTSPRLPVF

Row | SMILES | IC50 [1] | IC50 [2] | EC50 [3] | further results
1 | CNC(=O)c1cc(Oc2ccc3oc(Nc4ccccc4F)nc3c2)ccn1 | 200 nM | 580 nM | – | –
2 | CNC(=O)c1cc(Oc2ccc3oc(Nc4ccccc4Cl)nc3c2)ccn1 | 120 nM | 260 nM | – | –
3 | O=C(NCCN1CCOCC1)c1cc(Oc2ccc3sc(Nc4ccc(Br)cc4)nc3c2)ccn1 | 41 nM | 240 nM | > 10000 nM | –
4 | CNC(=O)c1cc(Oc2ccc3oc(Nc4ccc(Cl)cc4)nc3c2)ccn1 | 19 nM | 21 nM | – | –
5 | CNC(=O)c1cc(Oc2ccc3sc(Nc4ccc(C)cc4)nc3c2)ccn1 | 7 nM | 26 nM | – | CL/F [9]: 14.1 mL/min/kg; Vd (Mus musculus): 1.042 L/kg; half-life [10]: 80 min; bioavailability [11]: 90%
6 | CNC(=O)c1cc(Oc2ccc3c(c2)nc(Nc2cccc(C(C)(C)C)c2)n3C)ccn1 | – | 120 nM | 280 nM | –
7 | CNC(=O)c1cc(Oc2ccc3oc(Nc4ccc(Oc5ccccc5)cc4)nc3c2)ccn1 | 53 nM | 680 nM | – | –
8 | CCCCc1ccc(Nc2nc3cc(Oc4ccnc(C(=O)NC)c4)ccc3s2)cc1 | 9 nM | 65 nM | – | –
9 | CNC(=O)c1cc(Oc2ccc3oc(Nc4cccc(C(F)(F)F)c4)nc3c2)ccn1 | 27 nM | 110 nM | – | –
10 | CNC(=O)c1cc(Oc2ccc3oc(Nc4ccc(N(C)C)cc4)nc3c2)ccn1 | 12 nM | 130 nM | – | –
11 | CC(C)c1cccc(Nc2nc3cc(Oc4ccnc(C(=O)NCCN5CCOCC5)c4)ccc3o2)c1 | 140 nM | 200 nM | – | –
12 | CCc1ccccc1Nc1nc2cc(Oc3ccnc(C(=O)NC)c3)ccc2o1 | 110 nM | 340 nM | – | –
13 | CCN1CCN(c2ccc(Nc3nc4cc(Oc5ccnc(C(=O)NC)c5)ccc4o3)cc2)CC1 | 7300 nM | 17000 nM | – | –

The next lines start with results.

Row | IC50 [1] | IC50 [2] | EC50 [3] | SMILES | further results
14 | 3 nM | 25 nM | 10000 nM | CNC(=O)c1cc(Oc2ccc3oc(Nc4ccc(Br)cc4)nc3c2)ccn1 | –
15 | 3 nM | – | 1000 nM | CNC(=O)c1cc(Oc2ccc3oc(Nc4cccc(C(C)C)c4)nc3c2)ccn1 | inhibition [4]: Active; inhibition [5]: Active; inhibition [6]: Active; inhibition [7]: Active; inhibition [8]: Active
16 | 2 nM | 7 nM | > 10000 nM | CNC(=O)c1cc(Oc2ccc3sc(Nc4ccc(Br)cc4)nc3c2)ccn1 | –
17 | 1 nM | 6 nM | 1000 nM | CNC(=O)c1cc(Oc2ccc3oc(Nc4cccc(C(C)(C)C)c4)nc3c2)ccn1 | –
18 | 4 nM | 15 nM | – | CNC(=O)c1cc(Oc2ccc3sc(Nc4ccc(Cl)cc4)nc3c2)ccn1 | –
19 | 1 nM | 2 nM | 2900 nM | CC(C)(C)c1cccc(Nc2nc3cc(Oc4ccnc(C(N)=O)c4)ccc3s2)c1 | –
20 | 1 nM | 4 nM | 2100 nM | CNC(=O)c1cc(Oc2ccc3sc(Nc4cccc(C(C)(C)C)c4)nc3c2)ccn1 | inhibition [4]: Active; inhibition [5]: Active; inhibition [6]: Active; inhibition [7]: Active; inhibition [8]: Active
21 | 3 nM | 19 nM | 3200 nM | CNC(=O)c1cc(Oc2ccc3sc(Nc4ccc(C(C)C)cc4)nc3c2)ccn1 | –
22 | 1 nM | 5 nM | 7000 nM | CCc1ccc(Nc2nc3cc(Oc4ccnc(C(=O)NC)c4)ccc3o2)cc1 | CL/F [9]: 0.93 mL/min/kg; Vd (Mus musculus): 0.082 L/kg; half-life [10]: 32 min; bioavailability [11]: 33%
23 | 1 nM | 6 nM | – | CNC(=O)c1cc(Oc2ccc3oc(Nc4ccc(C(C)C)cc4)nc3c2)ccn1 | –
24 | 2 nM | 11 nM | – | CCCCc1ccc(Nc2nc3cc(Oc4ccnc(C(=O)NC)c4)ccc3o2)cc1 | –
25 | 4 nM | 18 nM | – | CNC(=O)c1cc(Oc2ccc3sc(Nc4ccc(OC(F)(F)F)cc4)nc3c2)ccn1 | –
26 | 4 nM | 4 nM | 3700 nM | CC(C)c1cccc(Nc2nc3cc(Oc4ccnc(C(N)=O)c4)ccc3o2)c1 | –
27 | 2 nM | 12 nM | – | CNC(=O)c1cc(Oc2ccc3oc(Nc4ccc(OC(F)(F)F)cc4)nc3c2)ccn1 | –
